Assay results reported in patent publication US20230090439A1, “PHARMACEUTICAL COMPOSITION FOR CONTROLLING PARASITES ON NON-HUMAN ORGANISMS” (priority 2020, published 2023).

Experiment: Solubility experiments (saturation solubility in solvents, HPLC-UV of supernatant)
Assay type: physicochemical
Settings: for Solubility in the solvent mixture of the composition according to the invention (in words): isopropanol/propylene carbonate 65:35, room temperature
Description: Dissolution experiments for active ingredients I-1, I-2, I-3 and I-4 in solvents for a pharmaceutical composition according to the invention are presented below. For biological effect, the active ingredient should be incorporated at a certain dose or amount in the formulation, in the ideal case it should be a solution in the formulation such that the active ingredient is therefore dissolved in the solvent. A certain minimum solubility is required for the solvent since the application volume is limited.
In this case, 10 g of the appropriate solvent or solvent mixture were initially charged and as much active ingredient was added until the solution is saturated. Isopropanol (IPA) and propylene carbonate (PPC) were used as solvents. The samples were stirred for 3 days. Should the active ingredient become fully dissolved, active ingredient was again added. Subsequently, the samples were stored for a further 4 days at the relevant temperature and centrifuged in order to remove the undissolved particles. The supernatants were analyzed in each case for active ingredient content by HPLC-UV.
Furthermore, solubility experiments with three further active ingredients from the class of fluorinated heteroarylamides in different solvents were carried out. The solubility experiments were carried out analogously to the experiments described above, however only at room temperature and the solvent mixture isopropanol/propylene carbonate 65:35% [m/m] was selected.
Experiments with solvent systems were also carried out in which the first solvent comprised two alcohols.

[1] = Isopropanol, room temperature (Table 2)
[2] = Isopropanol/propylene carbonate 65/35, room temperature (Table 2)
[3] = Propylene carbonate, room temperature (Table 2)

SMILES: CN(C(=O)c1cc(-c2cnn(-c3c(Cl)cc(C(F)(C(F)(F)F)C(F)(F)F)cc3Cl)c2)cnc1Cl)C1CC1 [I-1, 2-chloro-N-cyclopropyl-5-[1-[2,6-dichloro-4-[1,2,2,2-tetrafluoro-1-(trifluoromethyl)-ethyl]phenyl]pyrazol-4-yl]-N-methylpyridine-3-carboxamide]
- Saturation solubility (Ethanol (Table 3)): 2.76 % [ w/w]
- Saturation solubility (Ethanol/glycerol carbonate 65:35 (Table 3)): 6.48 % [ w/w]
- Saturation solubility (Ethanol/propylene carbonate 65:35 (Table 3)): 9.45 % [ w/w]
- Solubility (Ethanol/propylene carbonate/glycerol carbonate 65:17.5:17.5): >5 % [w/w]
- Saturation solubility (Glycerol carbonate (Table 3)): 0.15 % [ w/w]
- Saturation concentration of the solution (IPA/PPC 25/75 23° C.): 7.58 %[w/w]
- Saturation concentration of the solution (IPA/PPC 35/65 23° C.): 8.79 %[w/w]
- Saturation concentration of the solution (IPA/PPC 50/50 23° C.): 9.26 %[w/w]
- Saturation concentration of the solution (IPA/PPC 60/40 23° C.): 8.60 %[w/w]
- Saturation concentration of the solution (IPA/PPC 65/35 5° C.): 6.32 %[w/w]
- Saturation concentration of the solution (IPA/PPC 65/35 23° C.): 8.31 %[w/w]
- Saturation concentration of the solution (IPA/PPC 70/30 23° C.): 7.49 %[w/w]
- Saturation concentration of the solution (IPA/PPC 75/25 23° C.): 6.70 %[w/w]
- Saturation concentration of the solution (IPA/PPC 80/20 23° C.): 5.90 %[w/w]
- Saturation concentration of the solution (IPA/PPC 90/10 23° C.): 3.74 %[w/w]
- Saturation concentration of the solution (Isopropanol 5° C.): 0.98 %[w/w]
- Saturation concentration of the solution (Isopropanol 23° C.): 1.56 %[w/w]
- Saturation solubility (Isopropanol (Table 3)): 1.56 % [ w/w]
- Solubility (Isopropanol/ethanol/glycerol carbonate 32.5:32.5:35): >5 % [w/w]
- Solubility (Isopropanol/ethanol/propylene carbonate 32.5:32.5:35): >5 % [w/w]
- Saturation solubility (Isopropanol/glycerol carbonate 65:35 (Table 3)): 5.98 % [ w/w]
- Solubility (Isopropanol/propylene carbonate/glycerol carbonate 65:17.5:17.5): >5 % [w/w]
- Saturation concentration of the solution (Propylene carbonate 5° C.): 1.80 %[w/w]
- Saturation concentration of the solution (Propylene carbonate 23° C.): 2.43 %[w/w]
- Saturation solubility (Propylene carbonate (Table 3)): 2.43 % [ w/w]
- Solubility in the mixture of isopropanol and propylene carbonate compared to the pure solvents (in words) (mixture of isopropanol and propylene carbonate vs pure solvents): significant solubility increase
- Solubility in the solvent systems of Table 4 (in words) (three-component alcohol/carbonate solvent systems of Table 4): good solubilities

SMILES: O=C(NC1CC1)c1cc(-c2cnn(-c3c(Cl)cc(C(F)(C(F)(F)F)C(F)(F)F)cc3OC(F)(F)F)c2)cnc1Cl [I-2]
- Saturation solubility [1]: 6.99 % [w/w]
- Saturation solubility [2]: 24.20 % [w/w]
- Saturation solubility [3]: 5.34 % [w/w]
- Solubility in the solvent mixture of the composition according to the invention (in words): very good solubilities

SMILES: O=C(NC1CC1)c1cc(-c2cnn(-c3c(Cl)cc(C(F)(C(F)(F)F)C(F)(F)F)cc3C(F)(F)F)c2)cnc1Cl [I-3, 2-chloro-5-[1-[2-chloro-4-[1,2,2,2-tetrafluoro-1-(trifluoromethyl)ethyl]-6-(trifluoromethyl)phenyl]-1H-pyrazol-4-yl]-N-cyclopropyl-3-pyridinecarboxamide]
- Saturation solubility [1]: 4.18 % [w/w]
- Saturation solubility [2]: 17.57 % [w/w]
- Saturation solubility [3]: 4.89 % [w/w]
- Solubility in the solvent mixture of the composition according to the invention (in words): very good solubilities

SMILES: O=C(NC1CC1)c1cc(-c2cnn(-c3c(Br)cc(C(F)(C(F)(F)F)C(F)(F)F)cc3OC(F)(F)F)c2)cnc1Cl [I-4]
- Saturation solubility [1]: 13.42 % [w/w]
- Saturation solubility [2]: 29.38 % [w/w]
- Saturation solubility [3]: 11.76 % [w/w]
- Solubility in the solvent mixture of the composition according to the invention (in words): very good solubilities
